Where two headings read alike, the source gives them in different places.
Key:
[1] = target: MK2 (Homo sapiens (Human), UniProt P49137)
[2] = target: p38α activated, mitogen-activated protein kinase-activated protein kinase 2 (MAPKAP-K2 or MK2) enzyme (Homo sapiens (Human), UniProt P49137); test: MK2 Omnia continuous-read kinase assay for compound potency; format: biochemical; conditions: [MK-2]=0.4 nM, [ATP]=10 μM, [ST3-Sox]=10 μM; read-out: MK2 IC50
Source text: Mitogen-Activated Protein Kinase-Activated Protein Kinase 2 Omnia® Assay for Compound Potency Assessment:
The protocol below describes a continuous-read kinase assay optimized to measure potency of compounds against p38α activated, mitogen-activated protein kinase-activated protein kinase 2 (MAPKAP-K2 or MK2) enzyme. Further details of this assay are described by Life Technologies, Carlsbad, Calif. on their website at the following URL: http://tools.lifetechnologies.com/content/sfs/manuals/omnia_kinase_assay_man.pdf.
[Reagent] used: • [MK-2]=0.4 nM, • [ATP]=10 μM and • [ST3-Sox]=10 μM (ATP^appKM=10 μM)
Kinase reactions were started with the addition of 45 μL of the ATP-peptide substrate S/T3-Sox mix and monitored every 71 seconds for 120 minutes at λex360/λem485 in a Synergy H4 plate reader from BioTek (Winooski, Vt.) at room temperature.
Background signals from the no enzyme control wells were subtracted from all progress curves. The initial linear portions of the net progress curves were fit according to a linear equation to yield the slope and percentage of inhibition (% inhibition) at each compound concentration. The net progress curves obtained during the first two hours of reactions were also fit according to an ascending single-exponential equation (Eq. 1) to yield kobs values at each compound concentration. Plots of % Inhibition versus inhibitor concentrations were fit according to a dose-response equation (Eq. 2) to generate IC50 and Hill slope values while plots of kobs versus inhibitor concentration were fit according to Equation 3 (Eq. 3) to generate apparent kinact/KI values using the GraphPad PRISM software (Version 6.00; GraphPad San Diego, Calif.).
[formula] where F is the fluorescence intensity from the plate reader, V0 is a constant reflecting the relationship between the instrument readout and product concentration, t is time, e is Euler's number, and kobs is the observed inactivation rate constant.
[formula] where % Inhibition is percentage of inhibition, IC50 is half maximal inhibitory concentration, [I] is the inhibitor concentration, and n is the Hill slope.

[3] = percentage of modified protein after 60 minutes at room temperature, 10-fold excess of compound, MALDI (I-1 to I-50), magnetic bead MALDI (I-51 to I-129)
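Throughout, for Mass Modification: covalent binding read from centroid mass shift of compound-treated versus untreated intact MK2, shift divided by compound molecular weight, giving fraction of total protein bound.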

p38α activated, mitogen-activated protein kinase-activated protein kinase 2 (MAPKAP-K2 or MK2) enzyme, sequence (P49137 whole entry): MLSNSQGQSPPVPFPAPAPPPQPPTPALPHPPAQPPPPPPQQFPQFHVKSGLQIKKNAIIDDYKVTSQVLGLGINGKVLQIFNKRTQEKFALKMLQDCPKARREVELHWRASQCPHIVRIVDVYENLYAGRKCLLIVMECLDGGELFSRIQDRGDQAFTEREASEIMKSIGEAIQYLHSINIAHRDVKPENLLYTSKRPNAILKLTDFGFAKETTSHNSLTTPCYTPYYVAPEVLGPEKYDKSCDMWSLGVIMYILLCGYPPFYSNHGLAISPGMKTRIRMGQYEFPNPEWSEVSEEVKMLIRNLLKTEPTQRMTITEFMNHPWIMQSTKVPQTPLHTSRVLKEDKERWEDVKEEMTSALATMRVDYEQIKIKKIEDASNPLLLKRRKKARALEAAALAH
MK2, sequence (P49137 whole entry): as above

IC50 [2] [nM]	Structure (SMILES)	Mass Modification [1, 3]	Mass Modification [1]
–	C[C@@H]1CNc2c(sc3ccc4nc(Nc5cc(F)nc(F)c5)ccc4c23)C(=O)N1 [I-6, (R)-3-((2,6-difluoropyridin-4-yl)amino)-10-methyl-9,10,11,12-tetrahydro-8H-[1,4]diazepino[5′,6′:4,5]thieno[3,2-f]quinolin-8-one]	G (mass modification ≦30%)	–
–	C[C@@H]1CNc2c(sc3ccc4nc(Nc5nc(Cl)ncc5C(=O)NC5CCN(C)CC5)ccc4c23)C(=O)N1 [I-19, (R)-2-chloro-4-((10-methyl-8-oxo-9,10,11,12-tetrahydro-8H-[1,4]diazepino-[5′,6′:4,5]thieno[3,2-f]quinolin-3-yl)amino)-N-(1-methylpiperidin-4-yl)pyrimidine-5-carboxamide]	–	G (key: E: mass modification of ≧70%; F: mass modification of 31-69%; G: mass modification ≦30%)
< 100	CCOC(=O)c1cnc(Nc2ccc3c(ccc4sc5c(c43)NC[C@@H](C)NC5=O)n2)nc1Cl [I-23, (R)-ethyl 4-chloro-2-((10-methyl-8-oxo-9,10,11,12-tetrahydro-8H-[1, 4]diazepino[5′,6′:4,5]thieno[3,2-f]quinolin-3-yl)amino)pyrimidine-5-carboxylate]	G (mass modification ≦30%)	–
–	C[C@@H]1CNc2c(sc3ccc4nc(Nc5cc(F)nc(OCCN(C)C)n5)ccc4c23)C(=O)N1 [I-32, (R)-3-((2-(2-(dimethylamino)ethoxy)-6-fluoropyrimidin-4-yl)amino)-10-methyl-9,10,11,12-tetrahydro-8H-[1,4]diazepino[5′,6′:4,5]thieno[3,2-f]quinolin-8-one]	F (mass modification of 31-69%)	–
–	C[C@@H]1CNc2c(sc3ccc4nc(Nc5cc(F)nc(OC6COC6)n5)ccc4c23)C(=O)N1 [I-37, (R)-3-((6-fluoro-2-(oxetan-3-yloxy)pyrimidin-4-yl)amino)-10-methyl-9,10,11,12-tetrahydro-8H-[1,4]diazepino[5′,6′:4,5]thieno[3,2-f]quinolin-8-one]	F (mass modification of 31-69%)	–
–	C[C@@H]1CNc2c(sc3ccc4nc(Nc5cc(F)nc(OCC6(C)COC6)n5)ccc4c23)C(=O)N1 [I-39, (R)-3-((6-fluoro-2-((3-methyloxetan-3-yl)methoxy)pyrimidin-4-yl)amino)-10-methyl-9,10,11,12-tetrahydro-8H-[1,4]diazepino[5′,6′:4,5]thieno[3,2-f]quinolin-8-one]	G (mass modification ≦30%)	–
–	C[C@@H]1CNc2c(sc3ccc4nc(Nc5cc(F)nc(O[C@H]6CCOC6)n5)ccc4c23)C(=O)N1 [I-40, (R)-3-((6-fluoro-2-(((S)-tetrahydrofuran-3-yl)oxy)pyrimidin-4-yl)amino)-10-methyl-9,10,11,12-tetrahydro-8H-[1,4]diazepino[5′,6′:4,5]thieno[3,2-f]quinolin-8-one]	G (mass modification ≦30%)	–
–	C[C@@H]1CNc2c(sc3ccc4nc(Nc5cc(F)nc(O[C@@H]6CCOC6)n5)ccc4c23)C(=O)N1 [I-41, (R)-3-((6-fluor-2-(((R)-tetrahydrofuran-3-yl)oxy)pyrimidin-4-yl)amino)-10-methyl-9,10,11,12-tetrahydro-8H-[1,4]diazepino[5′,6′:4,5]thieno[3,2-f]quinolin-8-one]	G (mass modification ≦30%)	–
–	C[C@@H]1CNc2c(sc3ccc4nc(Nc5nc(F)cc(OCC6(C)COC6)n5)ccc4c23)C(=O)N1 [I-43, (R)-3-((4-fluoro-6-((3-methyloxetan-3-yl)methoxy)pyrimidin-2-yl)amino)-10-methyl-9,10,11,12-tetrahydro-8H-[1,4]diazepino[5′,6′:4,5]thieno[3,2-f]quinolin-8-one]	G (mass modification ≦30%)	–
–	C[C@@H]1CNc2c(sc3ccc4nc(Nc5nc(F)cc(O[C@@H]6CCOC6)n5)ccc4c23)C(=O)N1 [I-46, (R)-3-((4-fluoro-6-(((R)-tetrahydrofuran-3-yl)oxy)pyrimidin-2-yl)amino)-10-methyl-9,10,11,12-tetrahydro-8H-[1,4]diazepino[5′,6′:4,5]thieno[3,2-f]quinolin-8-one]	F (mass modification of 31-69%)	–
–	C[C@@H]1CNc2c(sc3ccc4nc(Nc5cc(F)nc(O[C@@H]6CCN(C)C6)n5)ccc4c23)C(=O)N1 [I-49, (R)-3-((6-fluor-2-(((R)-1-methylpyrrolidin-3-yl)oxy)pyrimidin-4-yl)amino)-10-methyl-9,10,11,12-tetrahydro-8H-[1,4]diazepino[5′,6′:4,5]thieno[3,2-f]quinolin-8-one]	G (mass modification ≦30%)	–
–	C[C@@H]1CNc2c(sc3ccc4nc(Nc5nc(F)cc(O[C@H]6CCOC6)n5)ccc4c23)C(=O)N1 [I-50, (R)-3-((4-fluoro-6-(((S)-tetrahydrofuran-3-yl)oxy)pyrimidin-2-yl)amino)-10-methyl-9,10,11,12-tetrahydro-8H-[1,4]diazepino[5′,6′:4,5]thieno[3,2-f]quinolin-8-one]	F (mass modification of 31-69%)	–
< 100	COCCOc1cc(Cl)nc(Nc2ccc3c(ccc4sc5c(c43)NC[C@@H](C)NC5=O)n2)n1 [I-69, (R)-3-((4-chloro-6-(2-methoxyethoxy)pyrimidin-2-yl)amino)-10-methyl-9,10,11,12-tetrahydro-8H-[1,4]diazepino[5′,6′:4,5]thieno[3,2-f]quinolin-8-one]	G (mass modification ≦30%)	–
–	C[C@@H]1CNc2c(sc3ccc4nc(Oc5nc(Cl)nc(N6CCC(F)(F)C6)n5)ccc4c23)C(=O)N1 [I-77, (R)-3-((4-chloro-6-(3,3-difluoropyrrolidin-1-yl)-1,3,5-triazin-2-yl)oxy)-10-methyl-9,10,11,12-tetrahydro-8H-[1,4]diazepino[5′,6′:4,5]thieno[3,2-f]quinolin-8-one]	E (mass modification of ≧70%)	–
–	C[C@@H]1CNc2c(sc3ccc4nc(Oc5nc(Cl)nc(N6CCCC(F)(F)C6)n5)ccc4c23)C(=O)N1 [I-78, (R)-3-((4-chloro-6-(3,3-difluoropiperidin-1-yl)-1,3,5-triazin-2-yl)oxy)-10-methyl-9,10,11,12-tetrahydro-8H-[1,4]diazepino[5′,6′:4,5]thieno[3,2-f]quinolin-8-one]	E (mass modification of ≧70%)	–
> 1000	CC(C)CN(Cc1cnc(Cl)nc1Oc1ccc2c(ccc3sc4c(c32)NC[C@@H](C)NC4=O)n1)CC(C)C [I-88, (R)-3-((2-chloro-5-((diisobutylamino)methyl)pyrimidin-4-yl)oxy)-10-methyl-9,10,11,12-tetrahydro-8H-[1,4]diazepino[5′,6′:4,5]thieno[3,2-f]quinolin-8-one]	F (mass modification of 31-69%)	–
–	C[C@@H]1CNc2c(sc3ccc4nc(Oc5nc(Cl)ncc5CNC(C)(C)C)ccc4c23)C(=O)N1 [I-102, (R)-3-((5-((tert-butylamino)methyl)-2-chloropyrimidin-4-yl)oxy)-10-methyl-9,10,11,12-tetrahydro-8H-[1,4]diazepino[5′,6′:4,5]thieno[3,2-f]quinolin-8-one]	E (mass modification of ≧70%)	–
101 to 500	C[C@@H]1CNc2c(sc3ccc4nc(Oc5nc(Cl)nc6c5CCCC6)ccc4c23)C(=O)N1 [I-109, (R)-3-((2-chloro-5,6,7,8-tetrahydroquinazolin-4-yl)oxy)-10-methyl-9,10,11,12-tetrahydro-8H-[1,4]diazepino[5′,6′:4,5]thieno[3,2-f]quinolin-8-one]	–	–

Structure (SMILES)	IC50 [2] [nM]	Mass Modification [1, 3]	Mass Modification [1]
CCOC(=O)c1cnc(SC)nc1Nc1ccc2c(ccc3sc4c(c32)NC[C@@H](C)NC4=O)n1 [I-12, (R)-ethyl 4-((10-methyl-8-oxo-9,10,11,12-tetrahydro-8H-[1,4]diazepino[5′,6′:4,5]thieno[3,2-f]quinolin-3-yl)amino)-2-(methylthio)pyrimidine-5-carboxylate]	501 to 999	–	G (key: E: mass modification of ≧70%; F: mass modification of 31-69%; G: mass modification ≦30%)

— patent US9790235B2, “MK2 inhibitors and uses thereof” (Celgene CAR LLC, priority 2014, dated 2017)
